From patent publication US11304930B2, “Ammonium salts of 3-(3,5-dibromo-4-hydroxybenzyliden)-5-indo-1,3-dihydroindol-2-one and uses thereof” (Metagone Biotech Inc., priority 2018, dated 2022) come the findings set out here.

One series deals with SUN-1 cells. Put plainly: MTS cell viability / proliferation assay. It is filed as cell-based. The conditions noted are these: 72 hrs, in combination with sorafenib. As for the experimental part: Gastric cancer cell line SUN-1 was purchased from the American Type Culture Collection (ATCC; Manassas, Va., USA) and were maintained in Roswell Park Memorial Institute-1640 (RPMI-1640) supplemented with 1.5 g/L sodium bicarbonate, 10% fetal bovine serum (FBS), 1.0% antibiotic-antimycotic, L-glutamine (2.0×10^−3 M), and 1.0% nonessential amino acids.
MTS cell proliferation assay kit (Abcam, Cambridge, UK) was used to evaluate cell viability. Briefly, SNU-1 cells were seeded in each well of a 96-well plate at the density of 8,000 cells/well and incubated overnight at 37° C. Cells were then treated with a test drug for 48 or 72 h at 37° C. Then, 20 μl MTS/well was added and incubated for 3 h at 37° C. Cell viability was measured by absorbance at 490 nm in a microplate reader.
To validate the bioactivity of the ammonium salts of GW5074 of Example 1, their effects on cell proliferation with or without the addition of another cell proliferation inhibitor-sorafenib, were investigated using MTS cell proliferation assay kit in accordance with the manufacturer's protocols. Results are illustrated FIGS. 1A and 1B.

The conditions of series [1]: mouse, in vivo, 40 mg/kg.
Procedure: (§1) B6 mice about 6-8 weeks of age (National laboratory animal center, Taipei, Taiwan) were used in the present study.
(§2) Pilot PK studies were carried out in mice.
(§3) Mice were fasting for 8 hrs before dosing. […] Blood samples were drawn from the tail vein at pre-designated time points. Each samples were extracted with 80% ethanol for 30 minutes and individually filtered through a 0.22 μm PVDF filter, then were subjected to HPLC-MS/MS.
The nature of series [2]: Water solubility of GW5074 salts.
Series [3] is described as follows: Pilot pharmacokinetic study in mice. The conditions noted are these: single dose 40 mg/Kg, GW5074 measured in plasma; for AUC0-t: 0 to 24 hours.
Procedure: as §1, §2, §3

Where two headings read alike, the source gives them in different places.

The Cmax is the highest concentration seen after dosing. As a reminder, the Tmax is the time at which the peak concentration occurs.

As for `O=C1Nc2ccc(I)cc2C1=Cc1cc(Br)c(O)c(Br)c1` [GW5074, 3-(3,5-dibromo-4-hydroxybenzyliden)-5-iodo-1,3-duhydroindol-2-one], the growth inhibition entry in the series on SUN-1 cells was “about 70%”. In series [1], the AUC0-t was found to be 6127.9 ng·h/mL, the highest concentration (Cmax) was determined as 4905.2 ng/mL, the T1/2 turned out to be 3.719 h and the time of peak concentration (Tmax) is 0.5 h.
Regarding `O=C1Nc2ccc(I)cc2C1=Cc1cc(Br)c([O-])c(Br)c1.[Na+]` [MG-A1, Sodium Salts of GW5074], the growth inhibition result in the series on SUN-1 cells is recorded as “about 70%”.
In the case of `CC(C)(N)CN.O=C1Nc2ccc(I)cc2C1=Cc1cc(Br)c(O)c(Br)c1` [MG-A2, 2-Amino-2-Methylpropylamine Salt of GW5075], in the series with SUN-1 cells, the growth inhibition entry is recorded as “about 70%”. For the same compound, the Solubility in series [2] is listed as 0.19 mg/100 mL. In series [3], the Cmax turned out to be 6447.7 ng/mL, the T1/2 stood at 4.855 h, the Tmax turned out to be 0.5 h and the AUC0-t is 7936.2 ng·h/mL.
`O=C1Nc2ccc(I)cc2C1=Cc1cc(Br)c(O)c(Br)c1.OCCN(CCO)CCO` [MG-A3, Triethanolamine Salt of GW5075]: the growth inhibition entry in the series on SUN-1 cells is “about 70%”. Besides, in series [3], the Cmax is 6844.6 ng/mL, the T1/2 amounted to 4.364 h, the time of peak concentration (Tmax) came to 0.5 h and the AUC0-t came out at 8258.7 ng·h/mL.
For the compound `C1COCCN1.O=C1Nc2ccc(I)cc2C1=Cc1cc(Br)c(O)c(Br)c1` [Morpholine Salt of GW5075], the Solubility in series [2] was found to be 0.57 mg/100 mL.
